# Read-outs that look alike come from different tables or passages of the source.
# Key:
# [1] = system: healthy subjects with an increased risk for atherothrombotic cardiovascular events; experiment: Primary preventive clinical outcome study; type: in vivo, human
# Procedure: The third outcome study investigates the primary preventive effect of Vorinostat in healthy subjects with an increased risk for atherothrombotic cardiovascular events i.e. cigarette smoking, abnormal blood lipid levels, hypertension, diabetes, abdominal obesity, low-grade inflammation and/or atherosclerosis. Subjects are randomized to double-blind oral treatment with 10 mg Vorinostat or placebo daily. The risk of a primary atherothrombotic event is followed annually. The primary composite efficacy endpoint is mortality, or non-fatal myocardial infarction or ischemic stroke. The study is event-driven to a total of 180 events in the placebo group.
# The third outcome study investigates the primary preventive effect of VPA in healthy subjects with an increased risk for atherothrombotic cardiovascular events due to low-grade inflammation. The inflammatory activation is clinically defined as an elevated serum level of high-sensitivity C-reactive protein (hs-CRP) >3 mg/L. Subjects are randomized to double-blind oral treatment with 100 mg valproic acid or placebo twice daily. The risk of a primary atherothrombotic event is followed annually. The primary composite efficacy endpoint is mortality, or non-fatal myocardial infarction or ischemic stroke. The study is event-driven to a total of 180 events in the placebo group. In this population the annual event rate is reduced by 30% from 1.5 to 1%.
# [2] = system: local release of t-PA from the endothelium; experiment: Intermediate endpoint study: in vivo t-PA release in man (perfused-forearm model, Substance P); design: species or system human; conditions: for increase of total amount of t-PA released (AUC): patients with stable angina pectoris, 2 weeks, daily oral dose: Vorinostat 10 mg, Belinostat 65 mg, Givinostat 2 mg, Panobinostat 0.5 mg, PCI-24781 2 mg, JNJ-26481585 0.2 mg, Mocetinostat 2 mg, SB939 0.4 mg, CXD101 10 mg
# Procedure: (§1) The study comprises 16 patients with stable angina pectoris. Patients are investigated before and after oral treatment with 10 mg Vorinostat (Zolinza®, Merck & Co., Inc, NJ, USA) daily for 2 weeks. The study has a randomized, cross-over design and t-PA release capacity is investigated before and after treatment, with each individual serving as his/her own control
# The capacity for t-PA release is investigated in the perfused-forearm model that we have developed, which is the only method that permits a direct measurement of the local release of t-PA from the endothelium (Hrafnkelsdottir, T., et al. Lancet 352, 1597-1598 (1998), Wall, U., et al. Blood 91, 529-537 (1998)). Since t-PA has a rapid hepatic clearance, it is impossible to infer endothelial release rates from plasma levels obtained from standard venous samples. With the invasive model, however, net forearm t-PA release rates are calculated from arterio-venous concentration gradients of t-PA after correction for forearm plasma flow. Acute t-PA release responses are induced by intra-arterial infusions of Substance P (Bachem, Bubendorf, Switzerland), and the amount and protein secretion profile is used as a measure of t-PA release capacity.
# as §1, with “pectoris and elevated serum levels of high-sensitivity C-reactive protein (hs-CRP) >3 mg/L.” for “pectoris.”, “100” for “10”, “valproic acid twice” for “Vorinostat (Zolinza®, Merck & Co., Inc, NJ, USA)”, “control.” for “control”
# The capacity for t-PA release is investigated in the perfused-forearm model that we have developed, which is the only method that permit a direct measurement of the local release of t-PA from the endothelium (Hrafnkelsdottir, T., et al. Lancet 352, 1597-1598 (1998), Wall, U., et al. Blood 91, 529-537 (1998). Since t-PA has a rapid hepatic clearance, it is impossible to infer endothelial release rates from plasma levels obtained from standard venous samples.
# With the invasive model, however, net forearm t-PA release rates are calculated from arterio-venous concentration gradients of t-PA after correction for forearm plasma flow. Acute t-PA release responses are induced by intra-arterial infusions of Substance P (Bachem, Bubendorf, Switzerland), and the amount and protein secretion profile is used as a measure of t-PA release capacity.
# [3] = system: t-PA mRNA expression in human umbilical vein endothelial cells (HUVECs); experiment: In vitro dose response: t-PA mRNA (and protein) expression in HUVEC after 24 h; type: cell-based
# Procedure: Human umbilical vein endothelial cells (HUVECs) were prepared by collagenase treatment of fresh umbilical cords (Jaffe, E. A., et al. J Clin Invest 52, 2745-2756 (1973)) obtained from the maternity ward of the Sahlgrenska University hospital, Gotheburg, Sweden. Cells were cultured in EGM-2 medium (Lonza, Basel, Switzerland) and all experiments were performed in passage 1 of subcultivation. Confluent HUVECs were exposed to 10 nM-10 μM of Vorinostat (Selleck Chemicals, Houston, Tex., USA) in complete medium for 24 h. After 24 h, cells and conditioned media were harvested.
# Total RNA was prepared using RNeasy Mini RNA kit (Qiagen, Hilden, Germany) and genomic DNA was removed using RNase-free DNase I set (Qiagen). Levels of t-PA mRNA were analyzed with real-time RT-PCR, performed on an Applied Biosystems 7500 Fast Real-Time PCR System using cDNA and Taqman reagents obtained from Applied Biosystems (Foster City, Calif., USA). Hypoxanthine phosphoribosyl transferase (HPRT, Assay number Hs99999909_m1, Applied Biosystems) was used as endogenous internal standard.
# Endothelial cells in culture are known to constitutively secrete the majority of synthesized t-PA making conditioned media a suitable source for quantification of t-PA protein. Conditioned medium from cell cultures was collected, centrifuged (10 000×g, 10 min, 4° C.) to remove cell debris, transferred to fresh tubes and stored at −70° C. Concentrations of t-PA antigen in conditioned media were determined using the commercially available TriniLize t-PA antigen ELISA (Trinity Biotech, Bray, Ireland) according to manufacturer's protocol.
# [4] = daily oral dose: Vorinostat 10 mg, Belinostat 65 mg, Givinostat 2 mg, Panobinostat 0.5 mg, PCI-24781 2 mg, JNJ-26481585 0.2 mg, Mocetinostat 2 mg, SB939 0.4 mg, CXD101 10 mg
# [5] = hs-CRP >3 mg/L, 100 mg valproic acid orally twice daily
SMILES,"annual event rate with treatment (reduced from 1.5) [1, 4] [%]","reduction of annual event rate [1, 4] [%]",increase of total amount of t-PA released (AUC) [2],concentration at which a significant increase of t-PA mRNA levels was seen [3] [nM],concentration of maximal effect on t-PA expression [3],increase of t-PA expression at maximal effect [3],"annual event rate with treatment (reduced from 1.5) [1, 5] [%]","reduction of annual event rate [1, 5] [%]","increase of total amount of t-PA released ([2]; stable angina pectoris and hs-CRP >3 mg/L, 100 mg valproic acid orally twice daily for 2 weeks)",concentration at which a significant increase of t-PA mRNA levels is seen ([3]; present-tense Examples 3-9) [nM],concentration of maximal effect on t-PA expression ([3]; present-tense Examples 3-9),increase of t-PA expression at maximal effect ([3]; present-tense Examples 3-9)
O=C(/C=C/c1cccc(S(=O)(=O)Nc2ccccc2)c1)NO [Belinostat],1,30,approximately 50%,10,around 3 μM,approximately 10 times,–,–,–,–,–,–
"CCCC(CCC)C(=O)O [VPA, valproic acid]",–,–,–,–,–,–,1,30,approximately 50%,–,–,–
"Cn1cc(CNCC2CCN(c3ncc(C(=O)NO)cn3)CC2)c2ccccc21 [JNJ-26481585, N-hydroxy-2-(4-((((1-methyl-1H-indol-3-yl)methyl)amino)methyl)piperidin-1-yl)pyrimidine-5-carboxamide]",1,30,approximately 50%,3,around 30 nM,approximately 6 times,–,–,–,1,around 30 nM,approximately 10 times
CCN(CC)Cc1ccc2cc(COC(=O)Nc3ccc(C(=O)NO)cc3)ccc2c1.Cl [Givinostat],1,30,approximately 50%,30,0.3 µM,10 times,–,–,–,10,around 0.3 μM,approximately 10 times
O=C(CCCCCCC(=O)Nc1ccccc1)NO [Vorinostat],1,30,approximately 50%,50,around 3 μM,approximately 7 times,–,–,–,–,–,–
"CN(C)Cc1c(C(=O)NCCOc2ccc(C(=O)NO)cc2)oc2ccccc12 [PCI-24781, 3-(dimethylaminomethyl)-N-[2-[4-(hydroxycarbamoyl)phenoxy]ethyl]-1-benzofuran-2-carboxamide]",1,30,approximately 50%,100,around 1 μM,approximately 6 times,–,–,–,1,around 0.3 μM,approximately 10 times
Nc1ccccc1NC(=O)c1ccc(CNc2nccc(-c3cccnc3)n2)cc1 [Mocetinostat],1,30,approximately 50%,100,around 3 μM,approximately 15 times,–,–,–,10,around 3 μM,approximately 10 times
Cc1nn(C)cc1CN1CCC(c2ccc(C(=O)Nc3ccccc3N)cc2)CC1 [CXD101],1,30,approximately 50%,–,–,–,–,–,–,10,around 3 μM,approximately 10 times
